# Assay results as given in patent US8933202B2, “AXL antibodies” (U3 Pharma GmbH, priority 2007, dated 2015).
# Experiments:
# Assay type in all cases: cell-based, human
# [1] = system: NCI/ADR-RES ovarian cancer cells; experiment: TUNEL staining, combination with doxorubicin; settings: 24 h
# From the text: As rat anti-Axl antibodies of the invention turned out to interfere with Gas6-mediated anti-apoptosis of serum-starved NIH3T3-Axl cl.7 fibroblasts, the question arose, whether antagonistic anti-Axl antibodies would synergize with chemotherapeutic agents in inducing apoptosis, thereby contributing to overcome drug resistance. In this example, NCI/ADR-RES (originally named MCF-7/AdrR) cells—a ovarian cancer cell line (Liscovitch and Ravid, 2007, Cancer Letters, 245, 350-352) displaying a high level of resistance to several agents including doxorubicin (Fairchild et al., 1987, Cancer Research, 47, 5141-5148; Xu et al., 2002, The Journal of Pharmacology and Experimental Therapeutics, 302, 963-971)—were incubated with the antagonistic anti-Axl antibody 11B7 and/or doxorubicin, and apoptosis rates were determined by TUNEL staining. In brief, 3×10^4 NCI/ADR-RES cells in normal growth medium were seeded per well of an 8-chamber culture slide (BD Falcon, cat#354118) which were pre-incubated with the same medium for 1 h at 37° C. The next morning, normal growth medium was removed and cells were washed with and cultured in serum-reduced (0.5% FCS) medium. In the evening, isotypic control antibody 1D5 or the antagonistic anti-Axl antibody 11B7 were added at final concentrations of 10 μg/ml each. In the morning of day 3, doxorubicin at final concentrations of 100 μM, 150 μM, or 200 μM was added, and cells were incubated at 37° C. After 24 h, cells were rinsed once with PBS, fixed with 4% formaldehyde in PBS (pH 7.5) for 20 min at room temperature, air-dried for 5 min, and stored at −20° C. Using the commercially available Fluorescein-FragEL™ kit (Oncogene, cat#QIA39, presently being distributed through Merck-Calbiochem), TUNEL staining was performed according to the supplier's manual instructions (chapter ‘Fluorescein-FragEL™ of cell preparations fixed on slides’, page 10). Applying fluorescence microscopy, cells were analyzed and photos were taken.
# C-8161 melanoma cells = experiment: Soft agar colony formation assay, combination with cisplatin; settings: 0.25 to 1.5 μM cisplatin, 5 days, compared to untreated control cells
# Method: Soft agar assays were conducted in order to investigate the ability of anti-Axl antibodies of the invention to inhibit anchorage-independent cell growth either alone or in combination with chemotherapeutic agents. The soft agar colony formation assay is a standard in vitro assay to test for transformed cells, as only transformed cells are able to grow in soft agar.
# In brief, 750 C-8161 melanoma cells either remained untreated or were pre-incubated with the antagonistic rat anti-Axl antibody 11B7 at 15 μg/ml in IMDM medium (Gibco) for 30 min at 37° C. Subsequently, cells were combined with Difco noble agar solution resulting in 50 μl of top agar cell suspension at concentrations of Agar, FCS, and 11B7 of 0.35%, 0.2%, and 7.5 μg/ml, respectively. This cell suspension was plated on top of 50 μl of a 0.7% agarose bottom layer containing 20% FCS, and was finally covered with another 50 μl of a feeding layer solution that contains 0.2% FCS as well as cisplatin in according concentrations. In the whole of 150 μl per sample, the final concentrations of 11B7 and cisplatin were 2.5 μg/ml and 1.5 μM, 1.0 μM, 0.75 μM, 0.5 μM, or 0.25 μM, respectively. Colonies were allowed to form for 5 days and were then stained with 50 μl MTT (Sigma, 1 mg/ml in PBS) for 3 hours at 37° C. Using a Scanalyzer HTS camera system in conjunction with the HTS Bonit colony formation software (Lemnatec, Wuerselen), the effect of the antagonistic rat anti-Axl antibody 11B7 in the absence or presence of cisplatin were analyzed in triplicates.
# [2] = system: NCI-H292 lung cancer cells; experiment: Wound healing/scratch assay; settings: 10 μg/ml antibody, 24 h, compared to isotypic control antibody
# From the text: To examine the migration and proliferation rates of different cells and culture conditions, in vitro wound healing/scratch assays are being employed for many years. These assays generally involve growing a confluent cell monolayer first. A small area is then disrupted and a group of cells are being destroyed or displaced by scratching a line through the layer with, for example, a pipette tip. The open gap is then inspected microscopically over time as the cells move in and fill the damaged area (“healing”). In brief, 1.5×10^6 NCI-H292 lung cancer cells were seeded per well of a 12 well dish and cultured in normal growth medium (RPMI, 10% FCS). After 8 h, cells were rinsed with PBS and starved in low serum medium (RPMI, 0.5% FCS) over night for 24 h. Using a sterile 200 μl pipette tip, three separate uniform wounds per well were scratched through the confluent NCI-H292 cell monolayers. […] Cells were permitted to migrate into the area of clearing for 24 h, washed once with PBS and fixed with ice cold Methanol (100%) at −20° C. After cells were stained with crystal violet (0.5% in 20% Methanol), rinsed with water and dried over night, photos of the wounds were taken.
molecule,measurement,setting,value
"COc1cccc2c1C(=O)c1c(O)c3c(c(O)c1C2=O)C[C@@](O)(C(=O)CO)C[C@@H]3O[C@H]1C[C@H](N)[C@H](O)[C@H](C)O1 [doxorubicin, reference compound]","apoptosis (TUNEL staining), doxorubicin with control antibody, 100 μM",[1]; 100 μM doxorubicin + 10 μg/ml control antibody,"No TUNEL staining, and hence no apoptosis"
same,"apoptosis (TUNEL staining), doxorubicin with control antibody, 150 μM",[1]; 150 μM doxorubicin + 10 μg/ml control antibody,only very week apoptosis
"N.N.[Cl][Pt][Cl] [cisplatin, reference compound]","soft agar colony growth, cisplatin alone",C-8161 melanoma cells,colony growth retardation in a dose-dependent manner
ch11B7-IgG2: chimeric anti-AXL antibody 11B7 with human IgG2 (antibody) heavy: EVQLQESGPGLVKPSQSLSLTCSVTGYSITSNYWGWIRKFPGDKMEWMGYITYSGSTSYNPSLKSRISITRDTSKNQFFLQLNSVTSEDTATYYCAITTFYYWGQGVMVTVSSASTKGPSVFPLAPCSRSTSESTAALGCLVKDYFPEPVTVSWNSGALTSGVHTFPAVLQSSGLYSLSSVVTVPSSNFGTQTYTCNVDHKPSNTKVDKTVERKCCVECPPCPAPPVAGPSVFLFPPKPKDTLMISRTPEVTCVVVDVSHEDPEVQFNWYVDGVEVHNAKTKPREEQFNSTFRVVSVLTVVHQDWLNGKEYKCKVSNKGLPAPIEKTISKTKGQPREPQVYTLPPSREEMTKNQVSLTCLVKGFYPSDIAVEWESNGQPENNYKTTPPMLDSDGSFFLYSKLTVDKSRWQQGNVFSCSVMHEALHNHYTQKSLSLSPGK light: DIQMTQAPSSLPASLGDRVTITCRASQDIGNYLRWFQQKPGKSPRLMISGATNLAAGVPSRFSGSRSGSDYSLTISSLESEDMADYYCLQSKESPWTFGGGTKLELKRTVAAPSVFIFPPSDEQLKSGTASVVCLLNNFYPREAKVQWKVDNALQSGNSQESVTEQDSKDSTYSLSSTLTLSKADYEKHKVYACEVTHQGLSSPVTKSFNRGEC,re-population of the cleared area (wound closure),[2],reduced the re-population of the cleared area
Ch11D5-IgG2: chimeric anti-AXL antibody 11D5 with human IgG2 (antibody) heavy: EVQLQESGPGLVKPSQSLSLTCSVTGYSITSNYWGWIRKFPGNKMEWIGHITNSGNTTYNPSLKSRISISRDTSRNQFFLQLNSVTTEDTATYYCAKGAFDYWGQGVMVTVSSASTKGPSVFPLAPCSRSTSESTAALGCLVKDYFPEPVTVSWNSGALTSGVHTFPAVLQSSGLYSLSSVVTVPSSNFGTQTYTCNVDHKPSNTKVDKTVERKCCVECPPCPAPPVAGPSVFLFPPKPKDTLMISRTPEVTCVVVDVSHEDPEVQFNWYVDGVEVHNAKTKPREEQFNSTFRVVSVLTVVHQDWLNGKEYKCKVSNKGLPAPIEKTISKTKGQPREPQVYTLPPSREEMTKNQVSLTCLVKGFYPSDIAVEWESNGQPENNYKTTPPMLDSDGSFFLYSKLTVDKSRWQQGNVFSCSVMHEALHNHYTQKSLSLSPGK light: DIQMTQSPSSMSTSLGDRVTITCRASQDIGNYLSWFQQKVGKSPRRMIYGAIKLAVGVPSRFSGSRSGSDYSLTISSLESEDMAIYYCLQYIQFPLTFGSGTKLELKRTVAAPSVFIFPPSDEQLKSGTASVVCLLNNFYPREAKVQWKVDNALQSGNSQESVTEQDSKDSTYSLSSTLTLSKADYEKHKVYACEVTHQGLSSPVTKSFNRGEC,re-population of the cleared area (wound closure),[2],reduced the re-population of the cleared area
